According to patent US20080214621A1, “Cycloalkyl Lactam Derivatives As Inhibitors Of 11-Beta-Hydroxysteroid Dehydrogenase 1” (priority 2004, published 2008):
pIC50: −log10 of the molar value.

These compounds were tested against Human 11β-HSD type 1 (Homo sapiens, UniProt P28845) (assay: 11β-HSD type 1 enzyme assay (NADPH production by fluorescence)). Details: recombinant human 11β-HSD type 1 enzyme, cortisol/NADP substrate, three hour incubation at room temperature.
Type: biochemical
Experimental: Human 11β-HSD type 1 activity is measured by assaying NADPH production by fluorescence assay. Solid compounds are dissolved in DMSO to a concentration of 10 mM. Twenty microliters of each are then transferred to a column of a 96-well polypropylene Nunc plate where they are further diluted 50-fold followed by subsequent two-fold titration, ten times across the plate with additional DMSO using a Tecan Genesis 200 automated system. Plates are then transferred to a Tecan Freedom 200 system with an attached Tecan Temo 96-well head and an Ultra 384 plate reader. Reagents are supplied in 96-well polypropylene Nunc plates and are dispensed individually into black 96-well Molecular Devices High Efficiency assay plates (40 μL/well capacity) in the following fashion: 9 μL/well of substrate (2.22 mM NADP, 55.5 μM Cortisol, 10 mM Tris, 0.25% Prionex, 0.1% Triton X100), 3 μL/well of water to compound wells or 3 μL to control and standard wells, 6 μL/well recombinant human 11β-HSD type 1 enzyme, 2 μL/well of compound dilutions. […] Final DMSO concentration is 0.5% for all compounds, controls and standards. Plates are then placed on a shaker by the robotic arm of the Tecan for 15 seconds before being covered and stacked for a three hour incubation period at room temperature. Upon completion of this incubation, the Tecan robotic arm removes each plate individually from the stacker and places them in position for addition of 5 μL/well of a 250 μM carbenoxolone solution to stop the enzymatic reaction. Plates are then shaken once more for 15 seconds then placed into an Ultra 384 microplate reader (355EX/460EM) for detection of NADPH fluorescence.

Sequence of Human 11β-HSD type 1 (P28845 whole entry): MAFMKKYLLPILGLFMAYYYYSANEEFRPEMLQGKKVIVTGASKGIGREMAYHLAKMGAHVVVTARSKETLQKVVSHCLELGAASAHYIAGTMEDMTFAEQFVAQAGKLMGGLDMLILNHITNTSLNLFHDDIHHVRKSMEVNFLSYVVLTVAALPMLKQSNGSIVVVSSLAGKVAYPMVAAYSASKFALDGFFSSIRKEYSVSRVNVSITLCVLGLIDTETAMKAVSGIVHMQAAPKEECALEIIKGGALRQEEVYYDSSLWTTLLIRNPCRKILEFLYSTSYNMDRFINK

Structure (SMILES) | pIC50
O=C1C(Cc2ccc3cc(-c4c(Cl)cccc4Cl)ccc3c2)CCN1C1CCCCC1 (stereo not shown) [Example 44] | 6.46
COc1ccc2ccccc2c1CC1CCCN(C2CCCCC2)C1=O (stereo not shown) [Example 40, 1-Cyclohexyl-3-(2-methoxy-naphthalene-1-ylmethyl)-piperidin-2-one] | 6.37
O=C1C(Cc2ccc3ccccc3c2Br)CCN1C1CCCCC1 (stereo not shown) [Example 2, 3-(1-Bromo-naphthalen-2-ylmethyl)-1-cyclohexyl-pyrrolidin-2-one] | 6.45
COc1ccc2cc(CC3CCN(C4CCCCC4)C3=O)ccc2c1 (stereo not shown) [Example 4, 1-Cyclohexyl-3-(6-methoxy-naphthalen-2-ylmethyl)-pyrrolidin-2-one] | 6.87
COc1ccc2cc(CC3CCCN([C@H]4CC[C@H](O)CC4)C3=O)ccc2c1 (stereo partly shown) [Example 34] | 6.45
COc1ccc2cc(CC3CCN([C@H]4CC[C@@H](O)CC4)C3=O)ccc2c1 (relative stereo) [Example 8, 1-(cis-4-Hydroxy-cyclohexyl)-3-(6-methoxy-naphthalen-2-ylmethyl)-pyrrolidin-2-one] | 6.61
COc1ccc2c(Cl)c(CC3CCN(C4CCCCC4)C3=O)ccc2c1 (stereo not shown) [Example 24, 3-((1-chloro-6-methoxynaphthalen-2-yl)methyl)-1-cyclohexylpyrrolidin-2-one] | 6.67
